The data set deals with HEK293T cells stably expressing SNAP-FLAG. In words: Viability assay (CellTiter-Glo, relative ATP content). Format: cell-based, human. The following applies: 2 hours at 37° C. As to the method: Viability assay: HEK293T cells stably expressing SNAP-FLAG were seeded with at 5,000 cells per well in 50 μL DMEM in a 96-well plate. Twenty-four hours later, cells were treated with a varying concentration (0, 0.5, 1, 5, 15, 45 μM in sextuplicate) of photoproximity probe PP1 in a total volume of 100 μL DMEM. After 2 hours at 37° C., a 100 μL of CellTiter-Glo® (Promega Corporation, Madison, Wis., United States of America; 5-fold DPBS dilution) was added and the plate imaged using a SYNERGY™ Neo HST plate reader (BioTek, Winooski, Vt., United States of America).
To determine if AC1 affects cell viability, a viability assay was performed. Briefly, HEK293T cells stably expressing Snap-Flag were seeded at 5,000 cells per well in 100 μL DMEM in a 96-well plate. Upon >90% confluency, media was gently removed and cells were treated with a varying concentration (0, 1, 5, 10, 15, 20, 50 uM) in sextuplicate of AC-1 in a total volume of 75 μL DMEM. After 2 hours at 37° C., media was aspirated and cells were gently washed with […] of serum free DMEM. […] Luminescence was recorded using a SYNERGY™ Neo HST plate reader (BioTek, Winooski, Vt., United States of America).
HEK293T cells stably expressing Snap-Flag were seeded at 5,000 cells per well in 100 μL DMEM in a 96-well plate. […] Luminescence was recorded using a SYNERGY™ Neo HST plate reader (BioTek, Winooski, Vt., United States of America).
(In ATP-based viability assays light output follows the ATP content of the culture.)

For `COc1cc(COC(=O)NC(CCCCNC(=O)CCC2(C)N=N2)C(=O)NCCCCC2SCC3NC(=O)NC32)c([N+](=O)[O-])cc1OCCCC(=O)NCc1ccc(COc2nc(N)nc3[nH]cnc23)cc1` (centres unmarked) [AC1], under “AC1 0-50 uM”, the “Cell growth or viability” value was “does not impair cell growth or viability”.

`COc1cc(C(C)OC(=O)NC(CCCCNC(=O)CCC2(C)N=N2)C(=O)NCCCCCNC(=O)CCCCC2SCC3NC(=O)NC32)c([N+](=O)[O-])cc1OCCCC(=O)NCc1ccc(COc2nc(N)nc3[nH]cnc23)cc1` (centres unmarked) [PP1]: under “PP1 0-45 μM (saturating doses)”, the Cell viability entry was “not affected”.

The values above are taken from patent US20230137943A1, “PHOTOPROXIMITY PROFILING OF PROTEIN-PROTEIN INTERACTIONS IN CELLS” (The University of Chicago, priority 2019, published 2023).
